Source: patent US11008346B2, “Beta-lactamase inhibitors” (priority 2014, dated 2021)

Legend:
SHV-5 β-lactamase = target: T1, SHV-5 β-lactamase (Klebsiella pneumoniae, UniProt P0A3M1); assay: β-lactamase enzyme inhibition, SHV-5; format: biochemical
T1 construct: made in house; host or cells: E. coli BL21(DE3)
Method: (§1) For SHV-5, Kpc-2, p99AmpC and OXA-1 β-lactamases, E. coli BL21(DE3) bacterial cells carrying expression plasmids (expressed as native untagged proteins) for the individual β-lactamases were grown in 1 L of Superbroth (Teknova Inc. Hollister, Calif.) supplemented with 100 μg/ml kanamycin selection and 1×5052 (0.5% glycerol, 0.05% glucose and 0.2% α-lactose) at 35° C. for 18-20 hours. Cells were harvested by centrifugation (4,000×g, 4° C., 20 min), resuspended in 50 ml of 10 mM HEPES pH 7.5 ( 1/20 of the initial volume). The cells were lysed by sonication (5 pulses of 45 seconds) at 45 W on ice. The lysates were clarified by centrifugation at 10,000×g for 40 minutes at 4° C. Samples were diluted 5-fold in 50 mM sodium acetate pH 5.0, stored overnight at 4° C., after which they were centrifuged at 10,000×g for 30 minutes to clarify, and filtered through 0.45 μm filters. The samples were loaded onto a 5 ml Capto S sepharose cation exchange column (GE Healthcare) pre-equilibrated with 50 mM sodium acetate pH 5.0. The column was washed with 5 column volumes of 50 mM sodium acetate pH 5.0 to wash out unbound protein and a linear gradient of NaCl (0 to 500 mM) was used to elute the protein (over 16 CV) from the column. Fractions were assayed for […] activity using Centa (Calbiochem, Gibbstown, N.J.) or Nitrocefin (EMD Millipore chemicals, Darmstadt, Germany) as a reporter β-lactamase substrate for activity in the isolated fractions. Active fractions were pooled, concentrated and further purified by gel filtration chromatography on a Superdex 75 prep grade gel filtration column (GE Healthcare, Piscataway, N.J.) pre-equilibrated in 50 mM Hepes pH 7.5, 150 mM NaCl. Active fractions were pooled, concentrated, and quantitated by BCA protein determination (Thermo Scientific, Rockford, Ill.), dialyzed into PBS and frozen at −80° C. in 20% glycerol until use.
(§2) An equal volume of diluted enzyme stock was added, and the plates were incubated at 37° C. for 15 min. Nitrocefin was used as substrate for p99 AmpC, VIM-2 and OXA-1 and dispensed into each well at a final concentration of 100 μM. Absorbance at 486 nm was immediately monitored for 10 min using a Biotek Powerwave XS2 microplate spectrophotometer using the GEN5 software package (Biotek Instruments, Winooski Vt.). In an analogous fashion, imipenem was used as substrate for KPC-2 and Cefotaxime was used for SHV-5, while changes in absorbance upon hydrolysis of the β-lactam ring were monitored at 300 nm and 260 nm respectively in UV-transparent 96-well microtiter assay plates. Maximum rates of hydrolysis were compared to those in control wells (without inhibitors), and percentages of enzyme inhibition were calculated for each concentration of inhibitor. The concentration of inhibitor needed to reduce the initial rate of hydrolysis of substrate by 50% (IC50) was calculated as the residual activity of β-lactamase at 486 nm using GraFit version 7 kinetics software package (Erithacus Software, Surrey, UK).
(§3) Using the methodology described above, examples of the current invention were evaluated for their ability to inhibit β-lactamase enzymes from all four Ambler classifications (A through D). […] NT=Not tested.

KPC-2 β-lactamase = target: T2, KPC-2 β-lactamase (Klebsiella pneumoniae, UniProt Q9F663); assay: β-lactamase enzyme inhibition, KPC-2; format: biochemical; conditions: imipenem substrate, 300 nm; 15 min at 37° C. preincubation; read-out: IC50 KPC-2 (Class A)
T2 construct: made in house; host or cells: E. coli BL21(DE3)
Method: as §1, §2, §3

[1] = target: T3, VIM-2 metallo β-lactamase (Pseudomonas aeruginosa, UniProt Q9K2N0); assay: β-lactamase enzyme inhibition, VIM-2; format: biochemical; conditions: Nitrocefin 100 μM, 486 nm; 15 min at 37° C. preincubation; read-out: IC50 VIM-2 (Class B)
T3 construct: made in house; host or cells: E. coli BL21(DE3)
Method: For VIM-2 metallo β-lactamase, the procedure was identical with the following exceptions, first the protein was not pH adjusted to pH 5 with 50 mM sodium acetate. Second, the chromatography step was changed to a 5 ml Q sepharose anion exchange column pre-equilibrated with 50 mM Hepes pH 7.5, and elution of the protein was achieved by a linear gradient of NaCl (0-600 mM). Finally, the VIM-2 purification required a second run (3rd step) on the Q sepharose anion exchange column to achieve acceptable purity (>90%).
as §2, §3

p99 AmpC β-lactamase = target: T4, p99 AmpC β-lactamase (Enterobacter cloacae, UniProt P05364); assay: β-lactamase enzyme inhibition, p99 AmpC; format: biochemical
T4 construct: made in house; host or cells: E. coli BL21(DE3)
Method: as §1, §2
Using the methodology described above, examples of the current invention were evaluated for their ability to inhibit β-lactamase enzymes from all four Ambler classifications (A through D).

[2] = tested on: E. coli ESBL4 expressing CTX-M-15; assay: broth microdilution MIC, E. coli CTX-M-15; format: cell-based; conditions: Fixed CAZ (ceftazidime) 4 μg/mL
Source text: (§4) To determine the ability of test compounds to potentiate the inhibition of the growth of bacterial strains that produce beta-lactamase enzymes, classic cell based broth microdilution MIC assays were employed. Six bacteria strains producing beta-lactamase enzymes were used: E. coli expressing the Class A Extended Spectrum Beta-Lactamase (ESBL) CTX-M-15, E. cloacae expressing the Class C P99, K. pneumoniae expressing the Class A carbapenemase KPC-3, P. aeruginosa expressing the Class B carbapenemase VIM-2, K pneumoniae expressing the class A carbapenemase KPC-2 and the class B carbapenemase VIM-4, and S. aureus producing the Class A penicillinase PC-1. The assay was conducted in Cation Adjusted Mueller Hinton Broth (CAMHB, BD #212322, BD Diagnostic Systems, Sparks, Md.). Bacteria strains were grown for 3-5 hours in CAMBH broth. Test compounds were added to a microtiter plate in 2-fold serial dilutions in CAMHB in a final concentration range of 32 μg/mL to 0.25 μg/ml. An overlay of CAMHB containing a Beta-lactam was added to the compounds at a final static concentration of 4 μg/ml. […] In addition to the titration of test compounds the MICs of a panel of control beta-lactams is also tested to ensure the strains are behaving consistently from test to test. Once the test compound and antibiotics are added the plates can be inoculated according to CLSI broth microdilution method. After inoculation the plates are incubated for 16-20 hours at 37° C., then the Minimal Inhibitory Concentration (MIC) of the test compound is determined visually.
(§5) Using the methodology described above, examples of the current invention were evaluated for their ability to inhibit the growth of β-lactamase-producing bacteria in the presence of a β-lactam antibiotic.
(§6) Representative results are shown in Table 4 where A represents an MIC of the fixed β-lactam antibiotic in the presence of >32 µg/mL of a β-lactamase inhibitor of exemplary compounds, B represents the MIC in the presence of between 8 and 32 µg/mL of a β-lactamase inhibitor of exemplary compounds, and C represents the MIC in the presence of ≤4 µg/mL of a β-lactamase inhibitor of exemplary compounds. NT=Not Tested.

[3] = tested on: E. cloacae 144200 expressing Class C P99 AmpC; assay: broth microdilution MIC, E. cloacae P99; format: cell-based; conditions: Fixed CAZ (ceftazidime) 4 μg/mL
Source text: as §4, §5, §6

[4] = tested on: K. pneumoniae 156319 expressing KPC-3; assay: broth microdilution MIC, K. pneumoniae KPC-3; format: cell-based; conditions: Fixed Mero (meropenem) 4 μg/mL
Source text: as §4, §5, §6

[5] = tested on: K. pneumoniae A-1797 expressing KPC-2 and VIM-4; assay: broth microdilution MIC, K. pneumoniae KPC-2 and VIM-4; format: cell-based; conditions: Fixed Mero (meropenem) 4 μg/mL
Source text: as §4, §5, §6

T4 sequence (P05364 21-381): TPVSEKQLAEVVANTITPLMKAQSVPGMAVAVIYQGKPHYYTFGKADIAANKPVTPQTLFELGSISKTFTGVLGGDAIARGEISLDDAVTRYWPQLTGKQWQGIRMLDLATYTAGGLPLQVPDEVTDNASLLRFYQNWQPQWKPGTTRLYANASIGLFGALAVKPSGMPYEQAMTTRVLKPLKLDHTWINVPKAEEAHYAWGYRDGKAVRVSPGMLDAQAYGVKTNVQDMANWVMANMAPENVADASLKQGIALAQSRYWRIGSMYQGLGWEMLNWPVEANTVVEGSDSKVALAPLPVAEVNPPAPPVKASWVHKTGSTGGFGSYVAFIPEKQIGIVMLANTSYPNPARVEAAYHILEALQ
T1 sequence (P0A3M1 22-286): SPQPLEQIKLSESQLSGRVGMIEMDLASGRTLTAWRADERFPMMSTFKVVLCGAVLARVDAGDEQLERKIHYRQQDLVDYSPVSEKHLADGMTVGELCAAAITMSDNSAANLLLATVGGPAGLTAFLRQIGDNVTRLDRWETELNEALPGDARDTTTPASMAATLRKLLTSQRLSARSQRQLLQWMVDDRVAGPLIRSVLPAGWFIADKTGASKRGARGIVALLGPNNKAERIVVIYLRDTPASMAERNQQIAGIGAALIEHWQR
T2 sequence (Q9F663 25-293, looked up): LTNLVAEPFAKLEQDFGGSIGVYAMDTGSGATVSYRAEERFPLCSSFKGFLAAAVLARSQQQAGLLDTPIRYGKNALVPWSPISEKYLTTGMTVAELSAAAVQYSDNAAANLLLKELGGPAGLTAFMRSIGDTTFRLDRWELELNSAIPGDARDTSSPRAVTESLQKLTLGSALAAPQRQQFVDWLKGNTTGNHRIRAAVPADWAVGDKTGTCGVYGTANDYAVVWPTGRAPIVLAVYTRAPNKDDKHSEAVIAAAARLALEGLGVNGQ

Row | SMILES | IC50 (SHV-5 β-lactamase) | IC50 (KPC-2 β-lactamase) | IC50 [1] | IC50 (p99 AmpC β-lactamase) | MIC of exemplary compounds in presence of fixed β-lactams, E. coli ESBL4 CTX-M-15 [2] | MIC of exemplary compounds in presence of fixed β-lactams, E. cl. 144200 p99 AmpC [3] | MIC of exemplary compounds in presence of fixed β-lactams, K.P. 156319 KPC-3 [4] | MIC of exemplary compounds in presence of fixed β-lactams, K.P. A-1797 KPC-2 VIM-4 [5]
1 | CNS(=O)(=O)CCC(=O)N[C@H]1Cc2cccc(C(=O)O)c2OB1O [Example 54, (R)-2-Hydroxy-3-(3-methylsulfamoyl-propionylamino)-3,4-dihydro-2H-benzo[e][1,2]oxaborinine-8-carboxylic acid] | < 100 nM | < 100 nM | 1000 to 10000 nM | < 100 nM | C (C represents the MIC in the presence of ≤4 g/mL of a β-lactamase inhibitor) | C (C represents the MIC in the presence of ≤4 g/mL of a β-lactamase inhibitor) | C (C represents the MIC in the presence of ≤4 g/mL of a β-lactamase inhibitor) | B (B represents the MIC in the presence of between 8 and 32 g/mL of a β-lactamase inhibitor)
2 | CN(C)S(=O)(=O)CCC(=O)N[C@H]1Cc2cccc(C(=O)O)c2OB1O [Example 55, (R)-3-(3-Dimethylsulfamoyl-propionylamino)-2-hydroxy-3,4-dihydro-2H-benzo[e][1,2]oxaborinine-8-carboxylic acid] | < 100 nM | < 100 nM | 1000 to 10000 nM | < 100 nM | C (C represents the MIC in the presence of ≤4 g/mL of a β-lactamase inhibitor) | C (C represents the MIC in the presence of ≤4 g/mL of a β-lactamase inhibitor) | C (C represents the MIC in the presence of ≤4 g/mL of a β-lactamase inhibitor) | B (B represents the MIC in the presence of between 8 and 32 g/mL of a β-lactamase inhibitor)
3 | COC(=O)NCC(=O)N[C@H]1Cc2cccc(C(=O)O)c2OB1O [Example 56, (R)-2-Hydroxy-3-(2-methoxycarbonylamino-acetylamino)-3,4-dihydro-2H-benzo[e][1,2]oxaborinine-8-carboxylicacid] | < 100 nM | 100 to 1000 nM | 1000 to 10000 nM | < 100 nM | C (C represents the MIC in the presence of ≤4 g/mL of a β-lactamase inhibitor) | C (C represents the MIC in the presence of ≤4 g/mL of a β-lactamase inhibitor) | C (C represents the MIC in the presence of ≤4 g/mL of a β-lactamase inhibitor) | B (B represents the MIC in the presence of between 8 and 32 g/mL of a β-lactamase inhibitor)
4 | O=C(CNC(=O)c1ccccc1)N[C@H]1Cc2cccc(C(=O)O)c2OB1O [Example 60, (R)-3-(2-Benzoylamino-acetylamino)-2-hydroxy-3,4-dihydro-2H-benzo[e][1,2]oxaborinine-8-carboxylic acid] | < 100 nM | < 100 nM | 10000 to 100000 nM | < 100 nM | C (C represents the MIC in the presence of ≤4 g/mL of a β-lactamase inhibitor) | C (C represents the MIC in the presence of ≤4 g/mL of a β-lactamase inhibitor) | B (B represents the MIC in the presence of between 8 and 32 g/mL of a β-lactamase inhibitor) | B (B represents the MIC in the presence of between 8 and 32 g/mL of a β-lactamase inhibitor)
